Literature values in patent US20230102192A1, “THERAPIES FOR THE TREATMENT OF DISEASES AND DISORDERS ASSOCIATED WITH ABNORMAL EXPRESSION OF A NEURAL-ASSOCIATED GENE” (The Regents of the University of California, priority 2020, published 2023).

Details: cited from earlier work

SMILES: Cc1cccc(C)c1NC(=O)CN1CCCC1=O [Nefiracetam, nefiracetam]
- toxicity during clinical trials (clinical trials): no evidence of toxicity
- toxicity on long-term consumption (humans and primates): no toxicity
